# According to patent US8372808B2, “Suppression of glial fibrillary acidic protein” (Wisconsin Alumni Research Foundation, priority 2008, dated 2013):
# Experiments:
# [1] = tested on: 2.2 kb human GFAP promoter; test: hGFAP promoter luciferase activity assay in 172.9 cells (primary astrocytes from dual luciferase transgenic mice); assay type: cell-based; settings: for suppression in the promoter assay: secondary screen, 10 μM, 48 hours; for % GFAP reductions, luciferace expression from hGFAP promoter: tertiary screen, 48 hr exposure, at the MTDcc
# Method: Cell-based assays were performed as four different screens using enriched cortical primary astrocyte cultures developed from transgenic mice expressing both firefly and Renilla luciferase reporter genes were generated. Briefly, the'firefly luciferase was placed under the control of a 2.2 kb human GFAP promoter to monitor GFAP transcription, and the Renilla luciferase was placed under the control of a 0.5 kb human GAPDH (glyceraldehyde 3-phosphate dehydrogenase) promoter to monitor transcription of a housekeeping gene for signal normalization. See section B, below for more detail regarding the development of transgenic mouse strains. Cells used in the following examples (e.g., the cortical primary astrocyte cells termed “172.9 cells,” described below) were developed from the transgenic mice described in section B.
# Briefly, the cortices from individual pups were freed of meninges and placed into DMEM (Gibco) without serum, mechanically disassociated into single cells, suspended in medium containing DMEM supplemented with 10% fetal bovine serum (FBS; Hyclone), 100 U/ml penicillin, 100 μg/ml streptomycin (Gibco), seeded into T25 flasks (one brain per flask), and maintained in a humidified 5% CO2 atmosphere at 37° C. […] Medium was changed every 3 days. At 14-16 days in vitro (DIV), the flasks were shaken overnight at 200 rpm to remove oligodendrocytes and microglia. […] The cells were then suspended in DMEM with 10% FBS and plated (“passage 2”) on either 35 mm dishes, […], or 96-well plates (Corning) as needed. Cells were grown for varying days in vitro (DIV) at passage 2 and then used for various experiments. Tissue culture dishes and plates were pre-coated with 100 μg/ml poly-L-lysine for 1 h in a humidified 5% CO2 atmosphere at 37° C., and then allowed to air dry. […] Cell density was measured with the Vi-CELL cell counter (Beckman Coulter) or hemocytometer by the trypan-blue exclusion method. For simplicity, cells are referred to as “172.9 cells.”
# Briefly, 172.9 cells were plated on poly-L coated white 96-well plates at a density of 5000 cells per well, in 100 μl DMEM with 10% FBS. At twenty-four hours, cells were exposed to the different compounds at a final concentration of 10 μM (diluted from a 50 mM stock) prepared in new medium (DMEM with 10% FBS). […] After exposure to compounds, luciferase activity in the primary and secondary screenings was determined by adding 30 μl of Bright-Glo™ reagent (Promega) to the 100 μl of media and cells of each well in the white 96-well plates with the Biomek® FX liquid handler (Beckman Coulter). After incubation for 1 minute at room temperature, signals were measured with the Safire 2 plate reader using Magellan™ software (Tecan). Other specific methods and equipment are known in the art and can be used to measure luciferase expression levels. This assay method is termed the “hGFAP promoter luciferase activity assay.” A reduction in luciferase expression as determined by this assay is termed “hGFAP promoter luciferase reduction.” For some assays that were aimed at confirming results of the initial screens, the same amount of Bright-Glo™ reagent was applied to each well in 96-well plates and signals were detected with the GloRunner™ Microplate Luminometer (Turner Biosystems) using the Dual-Glo® luciferase assay according to the manufacturer's recommendations (E1910, Promega).
# In the secondary screen, cells were plated in a 96-well plate as described above for the primary screen.
# Some compounds were unavailable outside of the library collections, and could not be further tested.
# Each compound and concentration was analyzed in quadruplicate wells.
# Compounds were tested at eight different concentrations ranging from 0-20 μM. In addition, GFAP protein levels were measured using a sandwich ELISA, which has greater sensitivity and is more accurate than the cell-based ELISA used in the primary screens.
# mGFAP protein = test: cell-based GFAP protein level assay (cell-based ELISA) in 172.9 cells; set-up: species or system mouse; settings: for suppression in the protein assay: secondary screen, 10 μM, 48 hours; for % GFAP reductions, mGFAP protein via ELISA: tertiary screen, 48 hr exposure, at the MTDcc
# 172.9 cells = test: cell viability (CellTiter-Glo) / MTDcc in 172.9 cells
# Method: Criterion for acceptable viability was >70% survival.
# Cell viability was determined as follows. After exposure to each compound (duplicate wells per compound), 50 μl of CellTitier-Glo Luminescent Cell Viability Assay reagent (G7571, Promega) was added to the 100 μl of media present in each well, and the luminescent signal (reflecting intracellular ATP level) was detected with either a Victor 3-V plate reader (Perkin Elmer) or GloRunner Microplate Luminometer (Turner Biosystems). Cell viability was expressed as a percent of non-treated control cells.
# A dose-response curve was created for each compound (0.1, 0.5, 1, 5, 10, 15, 20 μM) using 48 hr exposures. The MTDcc (“maximum tolerated dose—cell culture”) indicates the highest concentration that retained at least 70% cell viability. Each compound and concentration was analyzed in quadruplicate wells. EGCDG: epigallocatechin 3,5-digallate; NPPB: 5-nitro-2-phenylproplyaminobenzoic acid. As used herein, MTDcc refers to the MTD as determined by this assay under the above conditions.
# [2] = tertiary screen, 48 hr exposure, 0.1-20 μM, highest concentration that retained at least 70% cell viability
SMILES,suppression in the promoter assay [1],"% GFAP reductions, luciferace expression from hGFAP promoter [1] [%]",suppression in the protein assay (mGFAP protein),"% GFAP reductions, mGFAP protein via ELISA (mGFAP protein) [%]","MTDcc (172.9 cells; mouse, 48 h) [µM]",MTDcc (172.9 cells; [2]) [µM]
CCOC(=O)NC1=C(N2CC2)C(=O)C(NC(=O)OCC)=C(N2CC2)C1=O [diaziquone],significant suppression,86,significant suppression,9.5,>20,–
CCCCCCCCCCCC1=C(O)C(=O)C=C(O)C1=O [embelin],–,37,–,10.8,7.5,–
C[C@]12CC[C@@H]3c4ccc(OC(=O)c5ccccc5)cc4CC[C@H]3[C@@H]1CC[C@@H]2O [estradiol benzoate],–,26,–,−2.8,>20,–
CC(=O)OCC(=O)[C@@]12OC(C)(C)O[C@@H]1C[C@H]1[C@@H]3C[C@H](F)C4=CC(=O)C=C[C@]4(C)[C@@]3(F)[C@@H](O)C[C@@]12C [fluccinonide],–,28,–,−2.2,–,>20
OCCN1CCN(CCCN2c3ccccc3Sc3ccc(C(F)(F)F)cc32)CC1 [fluphenazine],–,23,–,−6.7,7.5,–
CCCCC(CC)CN1CN(CC(CC)CCCC)CC(C)(N)C1 (centres unmarked) [hexetidine],–,26,–,6.4,>20,–
O=c1c(-c2cc(O)c(O)c(O)c2)coc2cc(O)c(O)c(O)c12 [irigenol],significant suppression,28,significant suppression,1.8,>20,–
NC[C@H]1O[C@H](O[C@H]2[C@H](O)[C@@H](O[C@H]3O[C@H](CO)[C@@H](O)[C@H](N)[C@H]3O)[C@H](N)C[C@@H]2N)[C@H](O)[C@@H](O)[C@@H]1O [kanamycin],–,22,–,11.3,>20,–
CN1CCC(=C2c3ccccc3CC(=O)c3sccc32)CC1 [ketotifen],–,25,–,8.6,>20,–
COc1ccc2c(c1)O[C@@H]1COc3cc(OC)c(OC)cc3[C@@H]1C2=O [mundoserone],significant suppression,50,significant suppression,1.6,>20,–
NC[C@H]1O[C@H](O[C@H]2[C@H](O)[C@@H](O)[C@H](N)C[C@@H]2N)[C@H](N)[C@@H](O)[C@@H]1O [neamine],–,5,–,−0.8,–,>20
O=C1CCCN1CC#CCN1CCCC1 [oxotremorine],–,16,–,2.7,–,>20
CC(C)(CO)[C@@H](O)C(=O)NCCC(=O)O [pantothenic acid],–,6,–,−3.5,>20,–
CN(CC(=O)O)C(=N)NP(=O)(O)O [phosphocreatine],–,13,–,3.8,–,>20
CC(C)(C)c1ccc(C(O)CCCN2CCC(C(O)(c3ccccc3)c3ccccc3)CC2)cc1 (centres unmarked) [terfenadine],–,14,–,–,2.5,–
